Measurements taken from US20110046070A1, “GENE EXPRESSION INHIBITOR SELECTIVE FOR MATRIX METALLOPROTEINASE-9 GENE” (priority 2008, published 2011).

Tests used:
HeLa cells = assay: Growth inhibition assay, HeLa; format: cell-based, human; details: 0 μM to 30 μM, 72 hours, WST-8
Procedure: Cell growth inhibition test was conducted using MDA-MB-231 and HeLa cells. The HeLa cells were inoculated at a concentration of 2500 cells/well to a 96-well microtiter plate and incubated for 24 hours in 100 μl of Dulbecco's modified Eagle medium (DMEM) containing 10% fetal bovine serum (Invitrogen). Then, after medium replacement, the cells were cultured for 72 hours in a medium supplemented with 10% fetal bovine serum containing 0 μM to 30 μM (0 μM, 0.3 μM, 1 μM, 3 μM, 10 μM and 30 μM) polyamide HMMP9NFκβ, and 10 μl of live cell counting reagent SF (Nacalai Tesque, Inc.) was added thereto, followed by 2-hour color reaction. Absorbance was measured at 450 nm using an ARVO microtiter plate reader. This experiment was conducted by modified MTT assay (WST-8 ™: Nacalai Tesque, Inc.) using water-soluble formazan.

[1] = tested on: human uterine cervix cancer HeLa cells; assay: Wound-healing migration assay, HeLa; format: cell-based; details: 48 hours after the damage, various concentrations
Procedure: A human breast cancer MDA-MB-231 cell strain was used. The cells were cultured at 37° C. in a humid environment containing 5% CO^2 in an RPMI1640 medium (Sigma-Aldrich Corp., St. Louis, Mo., USA) supplemented with 100 μg/ml streptomycin, 100 units/ml penicillin and 10% fetal bovine serum (FBS) (Sigma-Aldrich Corp.). Human uterine cervix cancer HeLa cells were cultured in a Dulbecco's modified Eagle medium (DMEM, Invitrogen Life Technologies, Corp., Carlsbad, Calif.) containing 10% FBS and 2 mM L-glutamine.
To assay cellular migration in the process of wound healing, 3×10^5 cells were inoculated to each well of an 8-well chamber slide, and the cell layer was damaged using a plastic micropipette when the cells reached confluence. The medium and debris were removed by suction, and 100 μl of a fresh medium containing various polyamides was replaced therefor. 48 hours after the damage, the cells were fixed with Diff-Quik solution (SYSMEX INTERNATIONAL REAGENTS CO., LTD., Kobe, Japan), then stained, and photographed using a phase-contrast microscope.

[2] = tested on: MMP-9 gelatin degradation activity in culture supernatants of MDA-MB-231 cells; assay: Zymography assay using gelatin as a substrate; format: cell-based, human; details: 48 hours, MDA-MB-231 supernatant; for inhibition at 1 µM: read-out: inhibition of gelatin degradation activity compared with the control
Procedure: Proteins collected from culture supernatants of MDA-MB-231 cells were assayed using Novex (registered trademark) zymogram gelatin gel and XCell SureLock™ Mini-cell (Invitrogen Life Technologies, Corp.). The polyamides of the present invention were separately added at various concentrations to 2.5×10^5 cells. After 48-hour incubation, the supernatants were collected. Proteins from each sample were mixed with Novex (registered trademark) Tris-glycine SDS sample buffer (2×) and separated on a 10% zymogram gelatin gel. The gel was washed with a renaturing buffer and a developing buffer according to the manufacturer's manual. Then, the gel was digitized.

MDA-MB-231 cells = assay: Invasion assay into matrigel, MDA-MB-231; format: cell-based, human; details: 22 hours
Procedure: Cell invasion assay was conducted using a 24-well cell culture BioCoat matrigel invasion chamber (BD Biosciences, Discovery Labware, Bedford, Mass., USA). MDA-MB-231 cells (1×10^3 cells/well) or HeLa cells (1×10^3 cells/well) were suspended in an RPMI1640 or DMEM medium containing 0.1% FBS and added to the upper chamber. An RPMI1640 or DMEM medium containing 5% FBS was added to the lower chamber. Then, the cells were cultured at 37° C. for 22 hours in a 5% CO2 environment. Noninvasive cells remaining on the membrane were wiped off using a cotton swab. Invasion cells were fixed and stained with a Diff-Quik kit. The number of cells invading the membrane was determined in mean±standard deviation from a total of 3 membranes by counting in 10 fields of view per membrane using an optical microscope (200× magnification).
The degradation of constitutive proteins of extracellular matrix is important for the invasion of tumor cells. To evaluate the influence of HMMP9AP1 and HMMP9NFκβ, the MMP9 Py-Im polyamides of the present invention, on the invasion of tumor cells, 5×10^3 MDA-MB-231 cells were incubated with each polyamide at various concentrations for 22 hours. The invasiveness of cells treated with DMSO or each polyamide of the present invention was compared in MDA-MB-231 cells. The DMSO-treated MDA-MB-231 cells remarkably invaded the transparent membrane coated with matrigel. […] In contrast, the cells treated with the HMMP9AP1 or HMMP9NFκβ of the present invention had much lower invasion into the membrane.

[3] = tested on: binding of NF-κβ protein with the MMP-9 promoter region; assay: Immunoprecipitation/PCR assay with anti-NF-κβ antibodies; format: cell-based, human; details: 1 μM, 4 hours, MDA-MB-231 and HeLa cells
Procedure: Immunoprecipitation/PCR assay with anti-NF-κβ antibodies was conducted using MDA-MB-231 and HeLa cells. The MDA-MB-231 and HeLa cells were separately inoculated to a 100-mm culture dish and cultured for 24 hours in […] of Dulbecco's modified Eagle medium (DMEM) containing 10% fetal bovine serum (Invitrogen) and then with 1 μM match polyamide HMMP9NFκβ or 1 μM mismatch polyamide (shown in FIG. 26) for 4 hours. Protein-DNA complexes were fixed in 1% formaldehyde, reacted with specific NF-κB p65 antibodies and nonspecific rabbit immunoglobulin G antibodies, and collected by precipitation as antibody-protein-DNA complexes using Protein A beads. From the protein-DNA complexes, DNA was separated through reaction with 5 M NaCl and subjected to amplification reaction using PCR primers flanking the NFκβ binding sequence of MMP9. The NFκβ-bound DNA of an MMP9 gene promoter region is identified as a PCR product.
An MMP-9 promoter region from −657 to −484 was amplified using PCR primers (forward: 5′-TGTCCCTTTACTGCCCTGA-3′ (SEQ ID NO: 20) and reverse: 5′-[…]-3′ (SEQ ID NO: 21)) (Schwingshackl A, Duszyk M, Brown N, Moqbel R. HμMan eosinophils release matrix metalloproteinase-9 on stimulation with TNF-α. J Allergy Clin Immunol 104: 983-989, 1999).

SMILES | number of live cells (growth inhibition) (HeLa cells) | migration of HeLa cells [1] | inhibition of gelatin degradation activity (enzymatic activity of MMP-9) ([2]; 10 μM) | inhibition at 1 µM ([2]; Homo sapiens) [%] | decrease in invasion compared to the DMSO-treated control (MDA-MB-231 cells; 0.3 μM) [%] | decrease in invasion compared to the DMSO-treated control (MDA-MB-231 cells; 1 μM) [%] | decrease in invasion compared to the DMSO-treated control (MDA-MB-231 cells; 3 μM) [%] | decrease in invasion compared to the DMSO-treated control (MDA-MB-231 cells; 10 μM) [%] | NF-κβ p65-NF-κβ binding region complex of the MMP-9 promoter in immunoprecipitation with anti-NF-κβ p65 antibodies [3] | inhibition at 10 µM ([2]; Homo sapiens, 10 μM, read-out: inhibition of gelatin degradation activity (enzymatic activity of MMP-9)) [%]
CC(=O)Nc1cn(C)c(C(=O)Nc2cc(C(=O)NCCC(=O)Nc3cn(C)c(C(=O)Nc4cc(C(=O)Nc5cc(C(=O)NCCCC(=O)Nc6cn(C)c(C(=O)Nc7cn(C)c(C(=O)Nc8cc(C(=O)NCCC(=O)Nc9cn(C)c(C(=O)Nc%10cc(C(=O)NCCC(=O)NCCCN(C)C)n(C)c%10)n9)n(C)c8)n7)n6)n(C)c5)n(C)c4)n3)n(C)c2)n1 [HMMP9AP1] | decreased the number of live cells | inhibited the migrations | almost completely | 50 | 90 | 52 | 44 | 25.4 | – | –
CC(=O)Nc1cc(C(=O)Nc2cc(C(=O)NCCC(=O)Nc3cc(C(=O)Nc4cc(C(=O)NCCCC(=O)Nc5cn(C)c(C(=O)Nc6cn(C)c(C(=O)NCCC(=O)Nc7cc(C(=O)Nc8cc(C(=O)NCCC(=O)NCCCN(C)C)n(C)c8)n(C)c7)n6)n5)n(C)c4)n(C)c3)n(C)c2)n(C)c1 [HMMP9NFκβ] | decreased the number of live cells in a concentration-dependent manner | inhibit the migration of HeLa cells in a concentration-dependent manner | – | 62 | 88 | 61 | 30 | 22 | not detected | 82
